Results on three compounds are retold here after patent US4085111A, “1H-tetrazole derivatives” (Yoshitomi Pharmaceutical Industries, Ltd., priority 1974, dated 1978).

The test system of test [1] is SRS-A release from lung tissue. In words: Release of slow reacting substance of anaphylaxis (SRS-A) from sensitized lung tissue. As to conditions: Cavia porcellus, sensitized guinea-pig lung tissue, egg albumen 100 μg/ml; for inhibition at 0.01 µg/mL: 0.01 μg/ml; for inhibition at 0.1 µg/mL: 0.1 μg/ml. Format: cell-based, Guinea-pigs. As for the experimental part: Release of slow reacting substance of analphylaxis (SRS-A):
Guinea-pigs were sensitized with egg albumen, which was administered as a 10% solution, 100 mg both intraperitoneally and subcutaneously. Three to four weeks later the animals were killed by a blow on the head and the heart and lungs removed from the body and cleaned of blood. The lung tissue was dissected free from the heart, trachea and major bronchioles and then finely chopped. Portions of the lung tissue in 5 ml of Tyrode solution were preincubated with each test solution (50 μl) containing a test compound for 5 minutes at 37° C, to those were added 50 μl of egg albumen (100 μg/ml in a final concentration). The incubation mixture were further incubated for 15 minutes at 37° C. After centrifugation, the supernatant was assayed for SRS-A. The activity of SRS-A was assayed on the isolated guinea-pig ileum in the presence of atropine (5 × 10^-8 g/ml) and pyribenzamine (10^-7 g/ml). The percent inhibition was calculated using the following formula: [formula]

The test system of test [2] is histamine release from the peritoneal cavity. In words: Histamine release from the peritoneal cavity (dextran i.p.). Format: in vivo, male Wistar rats. As to conditions: Rattus norvegicus, ip; dose required for 50% inhibition; test compound i.p., dextran 180 mg/kg i.p.; rats. As for the experimental part:
Histamine release from the peritoneal cavity:
The method used was similar to that described by Hanahoe et al. (T.H.P. Hanahoe, A. Holliman, D. Gordon and W. Wieczorek, J. Pharm. Pharmac. 24, 666 (1972)). Groups of ten male Wistar rats (200-230 g) were injected intraperitoneally with 1 ml normal saline (0.9%) containing different amounts of test compound. A half minutes later they received an intraperitoneal injection of dextran (180 mg/kg, molecular weight about 250,000) or saline as vehicle control. Five minutes later the animals were killed, the peritoneal fluid was collected and centrifuged, and the supernatant was assayed fluorophotometrically for histamine. […] The percent inhibition was calculated using the following formula: [formula] The ED50, the dose required for 50% inhibition, was calculated from the dose-responsive curve.

Test [3] shares this test system. As to conditions: dextran-induced histamine release, in this experimental method (Hanahoe et al.); cited from earlier work.

Structures are written as SMILES.

With `O=c1c2cc(-c3nnn[nH]3)ccc2oc2ncccc12` [Compound A, 7-(5-1H-tetrazolyl)-5-oxo-5H-[1]benzopyrano[2,3-b]pyridine], in test [1], the inhibition at 0.01 µg/mL amounted to 25.2% and the inhibition at 0.1 µg/mL was 35.3%. The same compound yielded a median effective dose (ED50) in test [2] of 1 µg/kg.

As to `O=c1c2cccnc2oc2c(Cl)cc(-c3nnn[nH]3)cc12` [Compound B, 9-chloro-7-(5-1H-tetrazolyl)-5-oxo-5-H-[1]benzopyrano[2,3-b]-pyridine], in test [1], the inhibition at 0.01 µg/mL worked out at 19% and the inhibition at 0.1 µg/mL was 22.6%. Moreover, in test [2], the median effective dose (ED50) was found to be 0.25 µg/kg.

For `O=C(O)c1cc(=O)c2c(OCC(O)COc3cccc4oc(C(=O)O)cc(=O)c34)cccc2o1` [disodium cromoglycate], the “inhibition of the release of histamine” value in test [3] was “inhibits markedly”.

One may read the inhibition as how much of the control response was suppressed. One may read the ED50 as the dose that gives a 50% effect, or the effect in half of the subjects. Read a high ED50 as a need for a large dose.
